Laboratory results as given in patent publication US10138229B2, “Heteroaromatic compounds as BTK inhibitors” (Boehringer Ingelheim International GmbH, priority 2012, dated 2018).

Biological target: full-length human His-tagged BTK (Homo sapiens (Human), UniProt Q06187)
Assay: BTK Assay (HTRF, Cisbio KinEASE-TK)
Type: biochemical
Conditions: 6 nM BTK, 30 uM ATP, 15 min preincubation
Procedure: An HTRF assay (Cisbio KinEASE-TK cat #62TKOPEC) was performed to quantitate the ability of test compounds to inhibit BTK mediated phosphorylation of substrate. Assays were assembled in 384 well plates where 6 nM of full-length human His-tagged BTK (Life Technologies cat # PV3587) and test compound at varying concentrations were preincubated for 15 minutes at 28° C. Then, 1 uM of TK substrate-biotin and 30 uM ATP were added and incubated for an additional 30 minutes at 28° C.

full-length human His-tagged BTK, sequence (Q06187 whole entry): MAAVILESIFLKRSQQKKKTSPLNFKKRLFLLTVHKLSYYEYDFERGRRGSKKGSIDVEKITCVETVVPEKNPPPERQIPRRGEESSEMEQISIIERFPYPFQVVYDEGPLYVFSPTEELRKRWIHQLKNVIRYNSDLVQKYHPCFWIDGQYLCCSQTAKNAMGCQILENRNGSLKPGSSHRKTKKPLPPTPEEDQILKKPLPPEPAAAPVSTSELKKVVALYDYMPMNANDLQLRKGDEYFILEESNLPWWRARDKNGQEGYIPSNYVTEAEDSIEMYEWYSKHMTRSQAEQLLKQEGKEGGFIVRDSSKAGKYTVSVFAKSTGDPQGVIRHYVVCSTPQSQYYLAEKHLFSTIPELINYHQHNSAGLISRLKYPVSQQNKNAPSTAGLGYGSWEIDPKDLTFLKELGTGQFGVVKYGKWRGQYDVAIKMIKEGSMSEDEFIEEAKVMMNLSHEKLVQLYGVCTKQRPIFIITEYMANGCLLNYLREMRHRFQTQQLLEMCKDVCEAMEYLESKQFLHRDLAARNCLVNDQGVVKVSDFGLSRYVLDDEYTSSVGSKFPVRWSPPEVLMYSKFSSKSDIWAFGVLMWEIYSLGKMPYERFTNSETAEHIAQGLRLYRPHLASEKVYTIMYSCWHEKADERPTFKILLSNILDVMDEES

| SMILES | IC50 |
| --- | --- |
| CC#CC(=O)N1CC2(CC(c3nc(-c4ccc(Oc5ccccc5)cc4)c(C(N)=O)s3)C2)C1 [Example 58] | 1.1 nM |
| CN(C)C/C=C/C(=O)N1CCC[C@@H](n2cc(C(N)=O)c(-c3ccc(Oc4ccccc4)cc3)n2)C1 [Example 30] | 57 nM |
| C=CC(=O)N1CCC[C@@H](n2cc(C(N)=O)c(-c3ccc(Oc4ccc(C#N)cc4)cc3)n2)C1 [Example 75] | 6600 nM |
| CC#CC(=O)N1CC[C@]2(C1)C[C@@H](n1cc(C(N)=O)c(-c3ccc(Oc4ccccc4)cc3)n1)C2 [Example 89] | 34 nM |
| CC#CC(=O)N1CC[C@]2(C1)C[C@@H](n1nc(-c3ccc(Oc4ccccc4)nc3)c(C(N)=O)c1N)C2 [Example 122] | 17 nM |
| CC#CC(=O)N1CC2(CC(n3nc(-c4ccc(F)c(C(F)(F)F)c4)c(C(N)=O)c3N)C2)C1 [Example 143] | 37 nM |
| CC#CC(=O)N1CC2(CC(n3nc(-c4ccc(OC(F)(F)F)cc4)c(C(N)=O)c3N)C2)C1 [Example 108] | 14 nM |
| CC#CC(=O)N1CCC[C@H]1Cn1cc(C(N)=O)c(-c2ccc(Oc3ccccc3)cc2)n1 [Example 32] | 150 nM |
| C=CC(=O)NCCn1nc(-c2ccc(Oc3ccccc3)cc2)c(C(N)=O)c1N [Example 44] | 1 nM |
| C=CC(=O)N1CCC[C@@H](n2cc(C(N)=O)c(-c3ccc(Oc4cccc(F)c4)cc3)n2)C1 [Example 73] | 9.3 nM |
| CC#CC(=O)N1CC2(CC(n3nc(-c4ccc(OCCC)c(Cl)c4)c(C(N)=O)c3N)C2)C1 [Example 148] | 3 nM |
| CC#CC(=O)N1CCCC(Cn2cc(C(N)=O)c(-c3ccc(Oc4ccccc4)cc3)n2)C1 (centres unmarked) [Example 48] | 90 nM |
| C=CC(=O)N1CCC[C@@H](n2cc(C(N)=O)c(-c3ccc(Oc4cccc(C)c4)cc3)n2)C1 [Example 72] | 4 nM |
| C=CC(=O)N1CCC[C@@H](n2cc(C(N)=O)c(-c3cccc(NS(=O)(=O)c4ccc(C)cc4)c3)n2)C1 [Example 11] | 5500 nM |
| C=CC(=O)N1CC2(CC(n3nc(-c4ccc(OCCC)c(F)c4)c(C(N)=O)c3N)C2)C1 [Example 139] | 16 nM |
| C=CC(=O)N1CCC[C@@H](n2cc(C(N)=O)c(-c3ccc(C(=O)N4CCCCC4)cc3)n2)C1 [Example 94] | 8200 nM |
| CC#CC(=O)N1CCC[C@@H](c2nc(-c3ccc(Oc4ccccc4)cc3)c(C(N)=O)[nH]2)C1 [Example 59] | 8.9 nM |
| CC#CC(=O)N1CC[C@]2(C1)C[C@H](n1nc(-c3ccc(Oc4ccccn4)cc3)c(C(N)=O)c1N)C2 [Example 151] | 0.7 nM |
| C=CC(=O)N1CC2(CC(n3nc(-c4ccc(OC(C)C)c(Cl)c4)c(C(N)=O)c3N)C2)C1 [Example 124] | 10 nM |
| C=CC(=O)N1CCC[C@@H](n2cc(C(N)=O)c(-c3ccc(Oc4cccc(Cl)c4)cc3)n2)C1 [Example 68] | 41 nM |
| CNC(=O)/C=C/CN1CCC[C@@H](n2cc(C(N)=O)c(-c3ccc(Oc4ccccc4)cc3)n2)C1 [Example 90] | 90 nM |
| C=CC(=O)N1CCC[C@@H](n2cc(C(N)=O)c(-c3ccc(Oc4ccccc4F)cc3)n2)C1 [Example 96] | 4.8 nM |
| CC#CC(=O)N1CCC(Cn2cc(C(N)=O)c(-c3ccc(Oc4ccccc4)cc3)n2)C1 (centres unmarked) [Example 43] | 51 nM |
| CC#CC(=O)N1CC[C@]2(C1)C[C@H](n1nc(-c3ccc(OC)cc3)c(C(N)=O)c1N)C2 [Example 154] | 0.6 nM |
| CN(C)C/C=C/C(=O)N1CC2(CC(n3nc(-c4ccc(Oc5ccccc5)cc4)c(C(N)=O)c3N)C2)C1 [Example 100] | 0.8 nM |
| NC(=O)c1cn([C@@H]2CCCN(C(=O)C#CCN3CCOCC3)C2)nc1-c1ccc(Oc2ccccc2)cc1 [Example 93] | 33 nM |
| CC#CC(=O)N1CC2(CC(n3nc(-c4ccc(Oc5ccccc5)nc4)c(C(N)=O)c3N)C2)C1 [Example 102] | 2.7 nM |
| CC#CC(=O)N1CC[C@]2(C1)C[C@@H](n1nc(-c3ccc(C(F)(F)F)cc3)c(C(N)=O)c1N)C2 [Example 129] | 29 nM |
| C=CC(=O)N1CCC(Cn2cc(C(N)=O)c(-c3ccc(Oc4ccccc4)cc3)n2)CC1 [Example 47] | 10 nM |
